Values quoted from earlier work, collected in publication PMC4691061, “Repositioning of Thiourea-Containing Drugs as Tyrosinase Inhibitors” (International Journal of Molecular Sciences, 2015).

Target: tyrosinase
Conditions: tyrosinase; read-out: IC50; cited from earlier work

Compound: CCc1cc(C(N)=S)ccn1 [ethionamide]
- IC50: 4 µM
